Results from patent US20240116985A1, “STAPLED PEPTIDES AND METHODS THEREOF” (priority 2020, published 2024).

Molecular target: T1, full-length beta-Catenin (Uniprot ID P35222) (Homo sapiens, UniProt P35222)
T1 construct: 10 nM full-length beta-Catenin (Uniprot ID P35222)
T1 sequence (P35222 1-781): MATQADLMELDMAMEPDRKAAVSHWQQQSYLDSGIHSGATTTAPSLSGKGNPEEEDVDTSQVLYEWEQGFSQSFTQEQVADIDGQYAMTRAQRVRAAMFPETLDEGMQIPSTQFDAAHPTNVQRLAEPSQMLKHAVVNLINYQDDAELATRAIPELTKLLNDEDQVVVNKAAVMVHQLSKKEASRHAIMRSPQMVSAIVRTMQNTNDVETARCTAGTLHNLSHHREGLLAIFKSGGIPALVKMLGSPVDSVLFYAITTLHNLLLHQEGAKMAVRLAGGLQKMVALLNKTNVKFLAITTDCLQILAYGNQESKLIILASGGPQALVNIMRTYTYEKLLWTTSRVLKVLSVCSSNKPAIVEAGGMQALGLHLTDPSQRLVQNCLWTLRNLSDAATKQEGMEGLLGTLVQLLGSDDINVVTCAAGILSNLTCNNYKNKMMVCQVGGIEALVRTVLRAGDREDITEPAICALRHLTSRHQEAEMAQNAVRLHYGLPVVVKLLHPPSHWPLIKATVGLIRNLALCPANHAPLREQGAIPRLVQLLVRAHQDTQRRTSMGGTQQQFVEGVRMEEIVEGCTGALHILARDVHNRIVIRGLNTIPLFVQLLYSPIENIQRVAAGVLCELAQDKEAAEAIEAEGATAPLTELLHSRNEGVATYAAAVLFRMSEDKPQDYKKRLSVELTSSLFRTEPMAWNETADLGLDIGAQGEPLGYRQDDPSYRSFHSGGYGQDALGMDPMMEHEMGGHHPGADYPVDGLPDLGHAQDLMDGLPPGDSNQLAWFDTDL
Experiment: Fluorescence polarization IC50 (beta-catenin / 5FAM-TCF4 10-53 competition)
Type: binding
Details: fluorescence polarization; read-out: beta-Catenin FP IC50

Row | Compound | IC50
1 | CC(=O)N1CCC[C@]12CC=CCCCC1(CCCC=CCCCCCC[C@@](C)(C(=O)N[C@@H](Cc3ccccc3C(F)(F)F)C(=O)N[C@@H](Cc3csc4ccccc34)C(=O)N[C@H](CO)[C@@H](C)O)NC(=O)[C@H](CCO)NC(=O)[C@H](Cc3ccccc3)NC(=O)[C@H](C)NC(=O)[C@H](C)NC(=O)[C@H](CC(=O)O)NC(=O)[C@H](CC(=O)O)NC1=O)NC(=O)[C@H](CC(C)(C)C)NC(=O)[C@H](CC(=O)O)NC2=O (stereo partly drawn) [I-1398, Ac-PL3-Asp-Npg-B5-Asp-Asp-Ala-Ala-Phe-Hse-S8-2F3MeF-BztA-Thro1] | 73 nM
2 | CC(=O)N1CCC[C@]12CC=CCCCC1(CCCC=CCCCOC(=O)N3CC[C@@](C(=O)N[C@@H](Cc4ccccc4)C(=O)N[C@@H](Cc4csc5ccccc45)C(=O)N[C@@H](CCC(N)=O)C(N)=O)(C3)NC(=O)[C@H](CC3CCCCC3)NC(=O)[C@H](Cc3ccccc3)NC(=O)[C@H](C)NC(=O)[C@H](CCCCNC(C)C)NC(=O)[C@H](CCC(N)=O)NC(=O)[C@H](CC(=O)O)NC1=O)NC(=O)[C@H](CC(C)(C)C)NC(=O)[C@H](CC(N)=O)NC2=O (stereo partly drawn) [I-1650, Ac-PL3-Asn-Npg-B5-Asp-Gln-iPrLys-Ala-Phe-Cha-PyrS2-Phe-BztA-Gln-NH2] | 1680 nM
3 | CC(=O)N1CCC[C@]12CC=CCCCC1(CCCC=CCCCOC(=O)N3CC[C@@](C(=O)N[C@@H](Cc4ccsc4)C(=O)N[C@@H](Cc4cn(C)c5ccccc45)C(=O)N[C@@H](CO)C(N)=O)(C3)NC(=O)[C@H](CC(C)C)NC(=O)[C@H](Cc3ccccc3)NC(=O)[C@H](C)NC(=O)[C@H](C)NC(=O)[C@H](CC(=O)O)NC(=O)[C@H](CC(=O)O)NC1=O)NC(=O)[C@H](CC(C)(C)C)NC(=O)[C@H](CC(=O)O)NC2=O (stereo partly drawn) [I-1434, Ac-PL3-Asp-Npg-B5-Asp-Asp-Ala-Ala-Phe-Leu-PyrS2-3Thi-1MeW-Ser-NH2] | 83 nM
4 | CC(=O)N1CCC[C@]12CC=CCCCC1(CCCC=CCCCOC(=O)N3CC[C@@](C(=O)N[C@@H](Cc4ccccc4)C(=O)N[C@@H](Cc4c[nH]c5ccccc45)C(=O)N[C@@H](CCC(N)=O)C(N)=O)(C3)NC(=O)[C@H](CC(C)C)NC(=O)[C@H](Cc3ccccc3)NC(=O)[C@H](C)NC(=O)[C@H](C)NC(=O)[C@H](CC(=O)O)NC(=O)[C@H](CC(=O)O)NC1=O)NC(=O)[C@H](CC(C)C)NC(=O)[C@H](CC(=O)O)NC2=O (stereo partly drawn) [I-1811, Ac-PL3-Asp-Leu-B5-Asp-Asp-Ala-Ala-Phe-Leu-PyrS2-Phe-Trp-Gln-NH2] | 156 nM
5 | CC(=O)N1CCC[C@]12CC=CCCCC1(CCCC=CCCCOC(=O)N3CC[C@@](C(=O)N[C@@H](Cc4ccsc4)C(=O)N[C@@H](Cc4csc5ccccc45)C(=O)N[C@@H](CCO)C(N)=O)(C3)NC(=O)[C@H](CC(C)C)NC(=O)[C@H](Cc3ccccc3)NC(=O)[C@H](C)NC(=O)[C@H](C)NC(=O)[C@H](CC(=O)O)NC(=O)[C@H](CC(=O)O)NC1=O)NC(=O)[C@H](CO)NC(=O)[C@H](CC(=O)O)NC2=O (stereo partly drawn) [I-1514, Ac-PL3-Asp-Ser-B5-Asp-Asp-Ala-Ala-Phe-Leu-PyrS2-3Thi-BztA-Hse-NH2] | 27 nM

Other lines, results leading:

Row | IC50 | Compound
6 | 14 nM | CC(=O)N1CCC[C@]12CC=CCCCC1(CCCC=CCCCOC(=O)N3CC[C@@](C(=O)N[C@@H](Cc4ccsc4)C(=O)N[C@@H](Cc4csc5ccccc45)C(=O)N[C@@H](CCC(N)=O)C(N)=O)(C3)NC(=O)[C@H](CC(C)C)NC(=O)[C@H](Cc3ccccc3)NC(=O)[C@H](C)NC(=O)[C@H](C)NC(=O)[C@H](CN3CCC[C@@H](C(=O)O)C3)NC(=O)[C@H](CC(=O)O)NC1=O)NC(=O)[C@H](CC(C)(C)C)NC(=O)[C@H](CC(=O)O)NC2=O (stereo partly drawn) [I-1967, Ac-PL3-Asp-Npg-B5-Asp-R3COOPipA-Ala-Ala-Phe-Leu-PyrS2-3Thi-BztA-Gln-NH2]
7 | 66 nM | COC(=O)N1CCC[C@]12CC=CCCCC1(CCCC=CCCCOC(=O)N3CC[C@@](C(=O)N[C@@H](Cc4ccsc4)C(=O)N[C@@H](Cc4csc5ccccc45)C(=O)N[C@@H](Cc4c[nH]cn4)C(N)=O)(C3)NC(=O)[C@H](CCC(N)=O)NC(=O)[C@H](Cc3ccccc3)NC(=O)[C@H](C)NC(=O)[C@H](C)NC(=O)[C@H](CC(=O)O)NC(=O)[C@H](CC(=O)O)NC1=O)NC(=O)[C@H](CC(C)(C)C)NC(=O)[C@H](CC(=O)O)NC2=O (stereo partly drawn) [I-2362, CO2Me-PL3-Asp-Npg-B5-Asp-Asp-Ala-Ala-Phe-Gln-PyrS2-3Thi-BztA-His-NH2]
8 | 282 nM | CC(=O)N1CCC[C@]12CC=CCCCC1(CCCC=CCCCOC(=O)N3CC[C@@](C(=O)N[C@@H](Cc4ccccc4)C(=O)N[C@@H](Cc4csc5ccccc45)C(=O)N[C@@H](CCC(N)=O)C(N)=O)(C3)NC(=O)[C@H](CC(C)C)NC(=O)[C@H](Cc3ccccc3)NC(=O)[C@H](C)NC(=O)[C@H](C)NC(=O)[C@H](Cc3c[nH]cn3)NC(=O)[C@H](CC(=O)O)NC1=O)NC(=O)[C@H](CC(C)(C)C)NC(=O)[C@H](CC(N)=O)NC2=O (stereo partly drawn) [I-2442, Ac-PL3-Asn-Npg-B5-Asp-His-Ala-Ala-Phe-Leu-PyrS2-Phe-BztA-Gln-NH2]
9 | 3800 nM | CC(=O)N1CCC[C@]12CC=CCCCC1(CCCC=CCCCOC(=O)N3CC[C@@](C(=O)N[C@@H](Cc4ccsc4)C(=O)N[C@@H](Cc4csc5ccccc45)C(=O)N[C@@H](CCC(N)=O)C(N)=O)(C3)NC(=O)[C@H](CC(N)=O)NC(=O)[C@H](Cc3ccccc3)NC(=O)[C@H](C)NC(=O)[C@H](C)NC(=O)[C@H](CC(=O)O)NC(=O)[C@H](CC(=O)O)NC1=O)NC(=O)[C@H](CC(C)(C)C)NC(=O)[C@H](Cn1cc(CC(C)(C)C(=O)O)nn1)NC2=O (stereo partly drawn) [I-2329, Ac-PL3-[CH2CMe2CO2H]TriAzDap-Npg-B5-Asp-Asp-Ala-Ala-Phe-Asn-PyrS2-3Thi-BztA-Gln-NH2]
10 | 310 nM | CC(=O)N1CCC[C@]12CC=CCCCC1(CCCC=CCCCOC(=O)N3CC[C@@](C(=O)N[C@@H](Cc4ccsc4)C(=O)N[C@@H](Cc4csc5ccccc45)C(=O)N[C@@H](Cc4c[nH]cn4)C(N)=O)(C3)NC(=O)[C@H](CC(N)=O)NC(=O)[C@H](Cc3ccccc3)NC(=O)[C@H](C)NC(=O)[C@H](C)NC(=O)[C@H]([C@@H](C)O)NC(=O)[C@H](CC(N)=O)NC1=O)NC(=O)[C@H](CC(C)(C)C)NC(=O)[C@H](CC(=O)O)NC2=O (stereo partly drawn) [I-2141, Ac-PL3-Asp-Npg-B5-Asn-Thr-Ala-Ala-Phe-Asn-PyrS2-3Thi-BztA-His-NH2]
11 | 285 nM | CC(=O)N1CCC[C@]12CC=CCCCC1(CCCC=CCCCOC(=O)N3CC[C@@](C(=O)N[C@@H](Cc4ccsc4)C(=O)N[C@@H](Cc4csc5ccccc45)C(=O)N[C@@H](CCC(N)=O)C(N)=O)(C3)NC(=O)[C@H](CC(N)=O)NC(=O)[C@H](Cc3ccccc3)NC(=O)[C@H](CCCCNC(C)C)NC(=O)[C@H](C)NC(=O)[C@H]([C@@H](C)O)NC(=O)[C@H](CC(N)=O)NC1=O)NC(=O)[C@H](CC(C)(C)C)NC(=O)[C@H](CC(=O)O)NC2=O (stereo partly drawn) [I-2006, Ac-PL3-Asp-Npg-B5-Asn-Thr-Ala-iPrLys-Phe-Asn-PyrS2-3Thi-BztA-Gln-NH2]
12 | 4450 nM | CC(=O)N1CCC[C@]12CC=CCCCC1(CCCC=CCCCOC(=O)N3CC[C@@](C(=O)N[C@@H](Cc4cccc(Cl)c4)C(=O)N[C@@H](Cc4csc5ccccc45)C(=O)N[C@@H](CCC(N)=O)C(N)=O)(C3)NC(=O)[C@H](CC(N)=O)NC(=O)[C@H](Cc3ccccc3)NC(=O)[C@H](C)NC(=O)[C@H](C)NC(=O)[C@H]([C@@H](C)O)NC(=O)[C@H](CC(N)=O)NC1=O)NC(=O)[C@H](CC(C)(C)C)NC(=O)[C@H](CC(=O)O)NC2=O (stereo partly drawn) [I-2001, Ac-PL3-Asp-Npg-B5-Asn-Thr-Ala-Ala-Phe-Asn-PyrS2-3C1F-BztA-Gln-NH2]
